# In patent US10363229B2, “Methods and compositions for the treatment of cancer” (priority 2009, dated 2019):
# What was measured:
# melanoma cells = assay: Cell proliferation, BrdU incorporation into DNA; format: cell-based, mouse; settings: 2% methyl sulfone
# Method: Cells were plated onto sterile 12 mm coverslips in 35 mm tissue culture plates and incubated at 37° C., 5% CO2. After 24 hours, 2% methyl sulfone in medium or medium alone was added the plates and incubated at 37° C., 5% CO2 for 48 and 72 hrs. BrdU (Molecular Probes, Eugene, Oreg., USA; diluted ⅓ in RPMI medium) was added to each plate for 60 minutes at 37° C., 5% CO2. Coverslips were transferred to porcelain holders, washed with PBS, fixed in methanol/acetone (1:1), washed with PBS, and incubated in 5% BSA/PBS for 30 minutes at room temperature. To denature DNA, coverslips were placed in 0.1N HCL/1% Triton X-100 for 10 minutes at room temperature. After washing in PBS, cells were incubated with Alexa Fluor 488 anti-BrdU antibody (Molecular Probes, Eugene, Oreg.; diluted 1/20 in 5% BSA/PBS) for 60 minutes at room temperature. Cells were washed in PBS and incubated with Hoechst (diluted 1/1000 in PBS) in the dark at room temperature. After washing in PBS, cells were dipped in dH2O and drained onto Kim Wipes. SlowFade mounting medium (Molecular Probes, Eugene, Oreg.) was added to a glass slide and coverslips were placed face down onto slides and sealed with clear nail polish. […]
# [1] = system: E-cadherin, β-catenin, N-cadherin and vimentin in melanoma cells; assay: Immunofluorescence of E-cadherin, β-catenin, N-cadherin and vimentin (ETM transition); format: cell-based, mouse; settings: 2% methyl sulfone, 1 week
# Method: Cells were plated onto 12 mm coverslips. When cells grew to 60 to 70% confluence, 2% methyl sulfone was added to half the coverslips and normal medium to other half. […] PBS for 30 seconds and fixed in 37° C. 4% paraformaldehyde for 10 minutes. Cells were washed in PBS for 5 minutes and incubated in 1% Triton X-100/PBS for 5 minutes. To block nonspecific sites, chicken serum was diluted 1/20 in PBS and added to cells for 30 minutes. Cells were washed 3 times in 0.1% Triton X-100/PBS, 3 minutes each.
# Rabbit anti-E-cadherin antibody (Santa Cruz Biotech, Calif.) was diluted 1/100 in 5% BSA/PBS and added to the cells on coverslips for 2 hours. Cells were washed 5 times in 0.1% Triton X-100/PBS, 3 minutes each. Secondary antibody, Alexa Fluor 488 chicken anti-rabbit was diluted 1/200 in 5% BSA/PBS and added to coverslips for one hour in the dark. Cells were washed five times in 0.1% Triton X-100/PBS, three minutes each. Cells were washed in PBS for one minute and placed in Hoechst (1 mg/ml), diluted 1/1000, for 5 minutes. Cells were washed in PBS for one minute. SlowFade was added to slides, coverslips were placed face down and sealed with nail polish. […]
# [2] = system: B-cells from healthy volunteers; assay: Apoptosis of normal B-cells by Flow Cytometry; format: cell-based, human; settings: 10% methyl sulfone, 20 hours
# Method: Blood was drawn from healthy volunteers and white blood cells (e.g., lymphocytes, neutrophils) were enriched using Ficoll-Plaque. Cells were incubated in Petri dishes containing MEM with 7% fetal calf serum in a CO2 (5%) incubator at 37° C.; Methyl sulfone was present at concentrations of 0, 3, 6, or 10%. After 20 hours, cells were incubated with antibodies specific to T-lymphocytes (CD3 and CD4 T-cells), B-lymphocytes (B-cells) and neutrophils, and the percent of apoptotic cells was determined by Flow Cytometry. This is a technique that identifies specific cell types (e.g., CD3 T-cells, CD4 T-cells, B-cells, neutrophils) within a mixed population of blood cells, and then determines whether the cells are alive or apoptotic.
# After 20 hours, cells were incubated with fluorescent antibodies to identify T-cells, B-cells and neutrophils, and then processed by Flow Cytometry (FIG. 15).
substance,measurement,setting,value
methyl sulfone,cells synthesizing DNA (BrdU incorporation),melanoma cells; 48 hours (control 14%),0.03%
same,cells synthesizing DNA (BrdU incorporation),melanoma cells; 72 hours (control 21%),0%
same,"distribution of E-cadherin, β-catenin, N-cadherin and vimentin vs untreated",[1],no significant differences
same,effect on B-cells,[2],unharmed
